ChEMBL document CHEMBL4177545, “Potential Antiosteoporotic Natural Product Lead Compounds That Inhibit 17β-Hydroxysteroid Dehydrogenase Type 2” (J Nat Prod, 2017)

Experiments:
[1] = biological target: T1, 17-beta-hydroxysteroid dehydrogenase type 1 (Homo sapiens, UniProt P14061); assay: Inhibition of human 17beta-HSD1 expressed in HEK293 cell lysates incubated for 10 mins using [2,4,6,7-3H]-estrone and NADPH by scintillation counting method
T1 sequence (P14061 whole entry): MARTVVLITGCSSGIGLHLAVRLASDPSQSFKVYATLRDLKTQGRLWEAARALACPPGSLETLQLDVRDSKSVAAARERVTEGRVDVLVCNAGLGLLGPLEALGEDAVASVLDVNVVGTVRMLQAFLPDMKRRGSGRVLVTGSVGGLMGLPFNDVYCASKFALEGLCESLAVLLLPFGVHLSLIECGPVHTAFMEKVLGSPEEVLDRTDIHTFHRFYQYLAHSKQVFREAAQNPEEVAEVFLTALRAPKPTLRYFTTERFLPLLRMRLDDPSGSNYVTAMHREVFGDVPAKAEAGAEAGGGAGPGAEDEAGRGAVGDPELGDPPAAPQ

Homo sapiens = organism: Homo sapiens; assay: Selectivity index, ratio of inhibition of human 17beta-HSD1 expressed in HEK293 cell lysates to inhibition of human 17beta-HSD2 expressed in HEK293 cell lysates
Aromatase = biological target: T2, Aromatase (Homo sapiens, UniProt P11511); assay: Inhibition of aromatase (unknown origin)
T2 sequence (P11511 whole entry): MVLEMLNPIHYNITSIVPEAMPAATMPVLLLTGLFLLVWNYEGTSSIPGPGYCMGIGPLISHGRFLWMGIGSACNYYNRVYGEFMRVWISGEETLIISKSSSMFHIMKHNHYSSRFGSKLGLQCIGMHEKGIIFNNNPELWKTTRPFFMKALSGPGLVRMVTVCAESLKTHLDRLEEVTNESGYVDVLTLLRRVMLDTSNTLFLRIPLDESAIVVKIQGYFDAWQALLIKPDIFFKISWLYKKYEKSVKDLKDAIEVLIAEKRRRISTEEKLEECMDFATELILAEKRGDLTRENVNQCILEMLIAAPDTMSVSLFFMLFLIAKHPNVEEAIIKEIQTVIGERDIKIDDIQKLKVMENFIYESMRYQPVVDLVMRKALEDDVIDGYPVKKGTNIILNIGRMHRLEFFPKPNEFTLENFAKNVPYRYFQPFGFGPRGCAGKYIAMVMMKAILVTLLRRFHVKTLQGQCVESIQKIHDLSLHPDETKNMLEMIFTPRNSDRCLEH

Estrogen receptor = biological target: T3, Estrogen receptor (Homo sapiens, UniProt P03372); assay: Displacement of estradiol from human ERalpha expressed in yeast cells; type: cell-based
T3 sequence (P03372 whole entry): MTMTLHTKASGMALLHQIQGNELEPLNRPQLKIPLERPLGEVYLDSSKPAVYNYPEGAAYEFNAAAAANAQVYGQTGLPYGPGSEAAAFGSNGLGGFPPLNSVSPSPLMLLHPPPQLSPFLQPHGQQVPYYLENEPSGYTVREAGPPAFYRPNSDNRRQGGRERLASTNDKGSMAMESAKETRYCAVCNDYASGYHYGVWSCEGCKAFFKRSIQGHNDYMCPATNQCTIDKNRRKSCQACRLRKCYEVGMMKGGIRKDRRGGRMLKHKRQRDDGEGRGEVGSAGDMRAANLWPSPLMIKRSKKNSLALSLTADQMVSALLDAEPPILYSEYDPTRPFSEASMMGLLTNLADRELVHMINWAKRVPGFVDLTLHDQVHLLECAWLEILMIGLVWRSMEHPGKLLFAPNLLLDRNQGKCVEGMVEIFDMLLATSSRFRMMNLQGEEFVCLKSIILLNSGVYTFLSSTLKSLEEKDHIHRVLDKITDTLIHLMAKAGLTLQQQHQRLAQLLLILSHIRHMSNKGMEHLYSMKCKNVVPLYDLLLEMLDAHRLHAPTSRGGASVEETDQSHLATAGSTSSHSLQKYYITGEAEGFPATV

Estrogen receptor beta = Estrogen receptor beta (Homo sapiens, UniProt Q92731); assay: Displacement of estradiol from human ERbetaa expressed in yeast cells; type: cell-based
Chain of Estrogen receptor beta (Q92731 whole entry): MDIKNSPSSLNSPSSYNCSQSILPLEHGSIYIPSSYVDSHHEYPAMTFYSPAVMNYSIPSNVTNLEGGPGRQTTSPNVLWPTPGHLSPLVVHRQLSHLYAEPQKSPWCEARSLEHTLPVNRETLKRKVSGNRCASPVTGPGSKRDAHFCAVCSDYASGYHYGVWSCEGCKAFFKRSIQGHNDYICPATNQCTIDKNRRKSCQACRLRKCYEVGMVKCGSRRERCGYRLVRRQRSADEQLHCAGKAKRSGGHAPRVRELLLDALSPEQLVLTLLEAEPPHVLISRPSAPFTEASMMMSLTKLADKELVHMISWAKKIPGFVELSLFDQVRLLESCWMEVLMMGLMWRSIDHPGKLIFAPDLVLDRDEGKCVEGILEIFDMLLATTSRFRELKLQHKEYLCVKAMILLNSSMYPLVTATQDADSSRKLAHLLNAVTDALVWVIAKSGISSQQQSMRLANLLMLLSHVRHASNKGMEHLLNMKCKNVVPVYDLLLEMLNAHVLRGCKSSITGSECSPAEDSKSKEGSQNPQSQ

Structure (SMILES) | IC50 [1] | further results
O=C(/C=C/c1ccc(O)c(O)c1)O[C@H](Cc1ccc(O)c(O)c1)C(=O)O [ROSMARINIC ACID] | Not Active | 
O=C(Cc1ccc(O)c(Cl)c1)NCc1ccccc1Cl |  | Selectivity Index (Homo sapiens): 25
CCOC(=O)c1ccc(O)c(OC)c1 | Not Active | 
COc1cc(/C=C/C(=O)CC(=O)/C=C/c2ccc(O)c(OC)c2)ccc1O |  | Selectivity Index (Homo sapiens): 12
O=C(Cc1ccc(O)c(Cl)c1)NCCc1ccccc1 | Not Active | 
O=C(Cc1ccc(O)c(Cl)c1)NCCc1c[nH]c2ccccc12 | Not Active | 
O=C(Cc1ccc(O)c(Cl)c1)NCc1ccccc1 | Not Active | 
O=C(/C=C/c1ccc(O)cc1)c1ccc(O)cc1O [ISOLIQUIRITIGENIN] |  | IC50 (Aromatase): 3800 nM; IC50 (Estrogen receptor): 1870 nM; IC50 (Estrogen receptor beta): 269 nM
